Test results taken from patent US10927155B2, “Dual inhibitory action peptidomimetic inhibitor for IL-33 and IL-1beta” (GEORGE MASON UNIVERSITY, priority 2015, dated 2021).
Bridge positions count the residues as written; N and C are the ends. Ends that are not written are not given here.

Test system: IL-1β/IL-1R1 dependent signaling
Assay: HEK-Blue IL-33/IL-1β reporter cells (SEAP) stimulated with IL-1β
Format: cell-based
Settings: FIG. 15; for IL-1β/IL-1R1 dependent signaling (NF-κB and AP-1): HEK Blue reporter cells stimulated with IL-1
Text: HEK-Blue™ IL-33/IL-1β cells were purchased from InvivoGen. These cells were transfected with a reporter gene, secreted embryonic alkaline phosphatase (SEAP), under the control of the IFN-β minimal promoter fused to five NF-κB and five AP-1 binding sites. In the presence of bioactive IL1β and/or IL33, HEK-Blue cells activate the NF-κB and AP-1 pathways triggering the production of SEAP. SEAP activity in cell supernatant is quantified using a colorimetric enzyme assay (QUANTI-Blue™, InvivoGen).
HEK Blue IL-33/IL-1β Reporter Cells. HEK-Blue™ IL-33/IL-1β Cells were purchased from InvivoGen. These cells were generated by transfection with a reporter gene, secreted embryonic alkaline phosphatase (SEAP), under the control of the IFN-β minimal promoter fused to five NF-κB and five AP-1 binding sites. In the presence of bioactive IL-1β and/or IL-33, HEK-Blue cells activated the NF-κB and AP-1 pathways triggering the production of SEAP. SEAP activity in cell supernatant was quantified using a colorimetric enzyme assay (QUANTI-Blue™, InvivoGen). HEK Blue cells were grown in DMEM, 4.5 g/l glucose, 2 mM L-Glutamine, 10% (v/v) heat-inactivated fetal bovine serum (30 min at 56° C.). After two passages, cells were exposed to selective medium (DMEM, 4.5 g/l glucose, 2 mM L-Glutamine, 10% heat-inactivated FBS (v/v) with of blasticidin (30 μg/ml), hygromycin B ([…]), and Zeocin™ ([…])). Cells were then plate in 96 well plates (10,000 cell per well) and stimulated with IL-1β (1 ng) and IL-33 (5 ng) in presence or absence of inhibitors.

Substance	signaling activity of cytokine specificity controls (cytokine used instead of IL-1 as stimulus)	IL-1β/IL-1R1 dependent signaling (NF-κB and AP-1)
TNFα [reference compound]	no significant signaling activity	
TINQSCSHSRTQNQTRTQCLS (disulfide 6-19 (inferred)) [RedAgg_Cycl, Arg286 peptide with glutamine replacements and two cysteines forming a disulfide bridge]		inhibit IL-1β/IL-1R1 dependent signaling
TINESISHSRTEDETRTQILS (Synthetic construct Arg286)		inhibit IL-1β/IL-1R1 dependent signaling
TINQSISHSRTQNQTRTQILS (Synthetic construct RedAgg) [Arg286 peptide with glutamic acid replaced by glutamine to reduce aggregation]		inhibit IL-1β/IL-1R1 dependent signaling
TINESCSHSRTEDETRTQCLS [Cycl]		inhibit IL-1β/IL-1R1 dependent signaling
